Results published in patent EP4729530A1, “NOVEL PEPTIDE AND USE THEREOF” (Gemvax & Kael Co., Ltd., priority 2023, dated 2024).

Experiments:
[1] = Stability in human plasma (LC-MS, residual peptide); type: in vitro ADME; settings: 37 °C, read-out: percentage of residual peptide relative to the peptide amount before reaction
Description: The peptide was added to human plasma and diluted to a concentration of 5 µM, followed by incubation at 37 °C for 10, 60, and 240 minutes with stirring. The reaction mixture was collected and pretreated by plasma protein precipitation using methanol containing 0.1% formic acid. The resulting supernatants were collected and analyzed by LC-MS under the conditions shown in Table 1 below to determine the percentage of residual peptide relative to the initial peptide amount.

[2] = Pharmacokinetic profile in rats (intravenous and subcutaneous administration); type: in vivo; settings: Sprague Dawley rats
Description: To determine the pharmacokinetic profile of GV2002 prepared in Example 1, plasma was collected from rats administered with GV2002. The collected plasma was pretreated by protein precipitation using nine times the volume of methanol containing 0.1% formic acid, followed by centrifugation at 16,100 g for 10 minutes.
(§1) GV2002 was administered intravenously (IV) to three Sprague Dawley rats per group. Blood samples were collected at 0.033, 0.083, 0.17, 0.25, 0.5, 1, and 2 hours after administration. The collected blood samples were centrifuged to separate plasma, pretreated, and analyzed using LC-MS. Pharmacokinetic parameters were calculated using the non-compartmental analysis model of the Phoenix WinNonlin (Pharsight, ver. 6.4, USA) program.
as §1, with “subcutaneously (SC)” for “intravenously (IV)”, “of” for “of the”, “(Pharsight” for “(Pharsight,”, “USA).” for “USA) program.”

4R Tau^P301L-BiFC mouse [3] = experiment: Rota-rod experiment in 4R tauopathy mouse model; type: in vivo; settings: 3 times/week, 21 weeks
Description: (§2) In vivo experiments were performed on the 4R tauopathy mouse groups shown in FIG. 4 according to the schedule shown in FIG. 5 and the outline in Table 3 below.
Rota-rod experiments were conducted on mice with 4R tauopathy treated with GV2002 for five months, from 7.5 to 12.5 months of age, to evaluate the efficacy of GV2002 in alleviating impairment in motor ability.
On day 1, acclimation training was conducted, and on day 2, behavioral testing was conducted. Prior to acclimation training and behavioral testing, mice were allowed to acclimate to the testing environment for one hour. During acclimation training, mice walked on a […] at a speed ranging from 5 to 25 rpm for 300 seconds, and any mouse that lost its balance and fell to the floor was allowed to walk again. […] The measured values were analyzed using a two-way ANOVA with Dunnett's multiple comparisons test.

4R Tau^P301L-BiFC mouse [4] = experiment: Novel object recognition experiment in 4R tauopathy mouse model; type: in vivo; settings: GV2002 2 mg/kg subcutaneous, 3 times/week, 21 weeks
Description: as §2
Novel object recognition experiments were conducted on a 4R tauopathy mouse model administered GV2002 for five months, from 7.5 to 12.5 months of age, to evaluate the efficacy of GV2002 in alleviating impairment in cognitive ability.
Mice that underwent the experiment from days 1 to 6 according to the experimental method in Example 4-2 were subjected to a novel object recognition experiment on days 7 and 8. […] On day 8, one of the two objects was replaced with a novel object, and mice were placed in the enclosure and observed for 10 minutes, during which the time spent exploring the novel object was measured. Prior to the experiments on days 7 and 8, mice were allowed one hour to acclimate to the testing environment. The illumination level was maintained at a constant level throughout the experiment. The recorded data were analyzed using two-way ANOVA with Sidak's multiple comparisons test.

4R Tau^P301L-BiFC mouse [5] = experiment: Y-maze experiment in 4R tauopathy mouse model; type: in vivo; settings: GV2002 2 mg/kg subcutaneous, 3 times/week, 21 weeks; 8 minutes Y-maze
Description: as §2
Y-maze experiments were conducted on a 4R tauopathy mouse model administered GV2002 for five months, from 7.5 to 12.5 months of age, to evaluate the efficacy of GV2002 in alleviating impairment in spatial memory.
Prior to the experiment, mice were allowed one hour to acclimate to the testing environment. The mice's behavior was recorded for 8 minutes.

[6] = system: AT8 (phospho-Tau S202/T205); experiment: Immunofluorescence staining of brain tissue (AT8) for tau hyperphosphorylation; type: in vivo, mouse; settings: GV2002 2 mg/kg subcutaneous, 3 times/week, 21 weeks
Description: as §2
The brains of a 4R tauopathy mouse model administered GV2002 for 5 months, from 7.5 to 12.5 months of age, were removed and analyzed using immunofluorescence staining.
For brain tissue sampling, the 4R tauopathy mouse models were anesthetized, and saline was perfused intracardially, after which the blood was removed using a perfusion pump device. Then, the brains were removed and weighed. The brains to be used for tissue staining experiments were fixed in a 4% PFA solution for 24 hours. The fixed brain tissue was immersed in a 20% sucrose solution for 24 hours and then in a 30% sucrose solution for 48 hours for dehydration. The dehydrated brain tissue was removed, excess moisture was eliminated, and the brain tissue and a cryoembedding agent (OCT compound) were placed together in a mold to protect the tissue, after which the brain tissue was rapidly frozen using dry ice. The frozen brain tissue mold was stored in a -80 °C freezer. Afterwards, the brain tissue was sectioned into 30-µm-thick sections using a cryostat and stored in a 0.05% sodium azide solution.
For immunofluorescence staining of brain tissue, 30-µm-thick frozen brain sections were selected according to brain region, washed three times with PBS for 10 minutes each, fixed in 3.7% formaldehyde for 5 minutes, and washed three times with PBS for 10 minutes each. The brain tissue samples were permeabilized in 0.3% PBS-T solution, and then blocked in 5% BSA solution in PBS for 1 hour. The brain tissues were incubated overnight in 3% BSA and 0.1% Tween-20 solution in PBS containing AT8 (phospho-Tau S202/T205) antibody diluted at a ratio of 1:200, which targets tau hyperphosphorylation. The brain tissues were washed three times with PBS for 10 minutes each. The brain tissues were then incubated for 1 hour at room temperature in 3% BSA and 0.1% Tween-20 solution in PBS containing secondary antibody diluted 1:500. The brain tissues were immersed in PBS solution and washed once for 10 minutes. […] The brain tissues were immersed in PBS solution and washed three times for 10 minutes each, and fluorescence imaging was performed using a slide scanner.
To obtain fluorescence images of the stained brain tissue, brain tissue slides were scanned using a Zeiss Axio Scan (Zeiss, Oberkochen, Germany). AT8 fluorescence levels in each brain tissue region obtained through fluorescence imaging, i.e., the somatosensory cortex, hippocampus (CA1), motor cortex, and substantia nigra, were calculated using ImageJ software (NIH). The calculated values were analyzed using one-way ANOVA with Dunnett's multiple comparisons test.

remaining at 1 h, 5 µM ([1]; 60 minutes): 57.2%
remaining at 4 h, 5 µM ([1]; 240 minutes): 46.5%
AUC(0-t) ([2]; rat, plasma, intravenous (IV), non-compartmental analysis): 0.438 µg·h/mL
Substance: Ac-EARPALLTSRLRFIPK-NH2 [GV2002]
in vivo persistence after subcutaneous administration ([2]; subcutaneous (SC)): remains in a stable state in vivo without degradation and persists for a long period of time
motor ability (Rota-rod) compared to the reference compound LMTM-administered group (4R Tau^P301L-BiFC mouse [3]; GV2002 2 mg/kg subcutaneous vs LMTM 15 mg/kg oral): relatively enhanced motor ability
motor ability (Rota-rod, time until fall) compared to the vehicle-administered group (4R Tau^P301L-BiFC mouse [3]; GV2002 2 mg/kg subcutaneous, 7.5 to 12.5 months of age): significantly improved motor ability
time spent exploring the novel object compared to the time spent exploring the learned object (4R Tau^P301L-BiFC mouse [4]): significant increase
rate of spontaneous alternation behavior compared to the vehicle-administered group (4R Tau^P301L-BiFC mouse [5]): significant increase
AT8 fluorescence intensity, reduction compared to the vehicle-administered group ([6]; hippocampus region): 62%
AT8 fluorescence intensity, reduction compared to the vehicle-administered group ([6]; motor cortex region): 65%
AT8 fluorescence intensity, reduction compared to the vehicle-administered group ([6]; somatosensory cortex region): 57%
AT8 fluorescence intensity, reduction compared to the vehicle-administered group ([6]; substantia nigra region): 69%
